Target: T1, human Kir2.1 (Homo sapiens, UniProt P63252)
T1 construct: gene KCNJ2; tags kept
T1 sequence (P63252 1-427): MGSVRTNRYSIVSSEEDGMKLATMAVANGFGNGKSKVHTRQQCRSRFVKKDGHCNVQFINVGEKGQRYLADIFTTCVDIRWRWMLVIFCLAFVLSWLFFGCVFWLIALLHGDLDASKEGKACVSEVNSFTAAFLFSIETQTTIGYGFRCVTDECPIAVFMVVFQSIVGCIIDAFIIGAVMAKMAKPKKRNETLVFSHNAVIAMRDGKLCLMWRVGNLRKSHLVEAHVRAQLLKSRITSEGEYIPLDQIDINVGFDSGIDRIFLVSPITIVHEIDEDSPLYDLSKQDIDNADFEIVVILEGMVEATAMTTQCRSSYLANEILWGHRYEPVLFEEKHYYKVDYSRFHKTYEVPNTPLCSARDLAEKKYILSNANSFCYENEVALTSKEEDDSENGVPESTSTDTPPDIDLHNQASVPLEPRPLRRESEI
Test: […]+ uptake into proteoliposomes
Assay type: biochemical

Structure (SMILES): CC(C)CCC[C@@H](C)[C@H]1CC[C@H]2[C@@H]3CC=C4C[C@@H](O)CC[C@]4(C)[C@H]3CC[C@]12C [cholesterol]
- % reduction of channel activity: ~ 45%

Source: paper PMC3084843 (PLoS ONE, 2011)
